Assay results as given in patent publication EP4434515A1, “CBD FOR OCULAR USE” (Laboratoire Laredo S.L., priority 2023, dated 2024).
Like-named read-outs stand apart in the source and are kept apart here.

What was measured:
[1] = tested on: wildtype mice; details: high dose, soya oil/water emulsion; cited from earlier work
[2] = tested on: DBA/2J mice; assay: Intraocular pressure (IOP) by rebound tonometry in glaucoma model mice; format: in vivo
Description: The study of the effects of topical ophthalmic CBD administration in micelles was carried out with outbred CD-1 mice and inbred DBA/2J mice. Male JAXTM DBA/2J mice homozygous for null mutations in Tyrplb and GpnmbR150X (-/-) were purchased from Charles River Laboratories (France). CD-1® IGS male mice were obtained from the animal facilities of Universidad Rey Juan Carlos, using 51 mice in total for the study . All animals were 4 weeks-old at the beginning of the study. They were maintained in a temperature (23 ± 1 °C) and humidity (50-55%) controlled room, under a 12 h light/dark cycle (lights off between 19:00 and 07.00 h). Animals had free access to standard laboratory rat chow (Harlan Laboratories Inc.) and tap water. Trained investigators blind to drug treatment conducted all the behavioural assays in groups of two. Experiments were performed between 8:00 and 11:00 a.m. in conscious animals. All animal procedures were designed and conducted in accordance with a protocol approved by the Ethical Committee of Universidad Rey Juan Carlos and by the Autonomous Region of Madrid (PROEX 187.3/21) and followed the guidelines for the Care and Use of Laboratory Animals of the European Union Directive (2010/63/EU) and Spanish regulations (Law 32/2007, RD 53/2013 and order ECC/566/2015). A total of 51 male mice were utilised in this study, as explained in section 2.2 below. The number of animals used and their suffering were minimised
(§1) The research plan designed with the animal model is depicted in Fig. 3. It comprises three main phases: • An ageing phase, which includes an initial 3-month period of quarantine and acclimatisation and an additional 4.5-month period during which IOP (from month 3 until month 7,5), tear production (from month 5,5 until month 7,5) and tactile sensitivity (from month 4 to month 7,5) are monitored to obtain a baseline for such magnitudes. • A treatment phase, beginning when mice were 8 months old, where DBA/2J and CD-1 animals were randomly divided into two groups: treated and untreated. In this phase, treated mice receive CBD doses. The treatment phase comprises 3 periods: an acute period of 1 day, where, at time 0 of the phase, mice receive a CBD dose and are monitored for 24 hours; an initial chronic period of 18 days (days 2 to 19 of the treatment phase), where mice receive a daily CBD dose, and a second chronic period of other […] (days 21 to 37 of the treatment phase), where mice receive 2 daily CBD doses. From the end of the ageing phase to the end of the following phase, the wear-off phase, IOP, tear production and tactile sensitivity are monitored three times per week, following an alternative measuring system: on a same day, IOP was monitored in two groups, while tear production and tactile sensitivity were monitored in the other two groups, while, on the following measuring day, tear production and tactile sensitivity were monitored in the first two groups and IOP was monitored in the other two groups. • A wear-off phase, during which mice receive no treatment and IOP tear production and tactile sensitivity are monitored at 24, 48, 72 and 96 hours after the beginning of the phase, following the same alternative system of the treatment phase.
CBD was administered as part of a micellar solution prepared as described in Example 1. In particular, in each dose, 5 µl of the micellar solution (with 5 mM CBD) was administered to one eye of each mice, while the other eye remained untreated or received only the vehicle, type II water. Treatment was always applied to the right eye. A different group of animals was treated during two weeks with the vehicle to ensure that it had no effect on IOP, corneal mechanical sensitivity or spontaneous production of tear.
Measurements during the chronic treatment phase were always taken prior to daily administration. At each time point indicated in the chart of Fig. 3, rebound tonometry or von Frey test was performed in the same group of animals. […]

[3] = tested on: DBA/2J mice; assay: Corneal mechanical sensitivity, von Frey test; format: in vivo
Text: as §1, with “phase. […]” for “phase.”
(§2) The study was carried out with the same DBA/2J animals used in the study of section 2.3, taking measures of tactile sensitivity in days different from those where IOP was measured, as scheduled in Fig. 3 and Table 3. […]
(§3) Corneal mechanical sensitivity was measured following the von Frey test. […]

[4] = tested on: CD-1 mice; assay: Corneal mechanical sensitivity, von Frey test; format: in vivo; details: treated vs untreated
Text: as §1, with “phase. […]” for “phase.”
as §2, §3

[5] = tested on: CB1 knockout mice; details: high dose, soya oil/water emulsion; cited from earlier work
[6] = topical, cited from earlier work
[7] = CBD release from micelles through the HA hydrogel into simulated tear fluid, HPLC; format: physicochemical; details: after 12 h, simulated tear fluid as receiving medium
Description: Next, an assay of CBD release from micelles through the HA hydrogel was carried out for 24 hours (the time that the gel will be in contact with the eye), using STF (simulated tear fluid: NaCl (0.68 g), NaHCO3 (0.22 g), CaCl2·2H2O (0.008 g), KCI (0.14 g), and type II water to a total volume of 100 ml, filtered through a 0.2 µm pore size filter) as the receiving medium in order to recapitulate as much as possible release in tears, and taking samples at 1, 3, 5 8, 12 and 24 h. High-Performance Liquid Chromatography (HPLC) was the analytical technique that allowed the separation, identification (by comparison with standard patterns) and quantification, using a reverse phase and mobile phase under certain conditions; a mixture of methanol and water (85:15). The other conditions are as follows; flow rate of 1.0 ml/min, injection volume 10 µl and wavelength at 220 nm. Under the conditions mentioned above, a good determination of the CBD can be carried out.

[8] = Body weight and welfare (actual severity of the procedure); format: in vivo, mice
Description: In order to assess the actual severity of the treatment at the end of the procedure, the rates of mortality and morbidity were also recorded. Additionally, body weight measurements were […] during the study, as body weight is considered to be a sign of welfare.
The values obtained are represented in Fig. 11. Additionally, the rate with regard to the value at month 7.8 (where CBD has not been administered yet) was calculated by one-way ANOVA followed by Dunnett's Multiple Comparisons test, a statistical test used to compare multiple treatment groups with a control group. Ia applicable when multiple treatment groups are present and it is desired it determine if any of them are statistically different from the control group, is often used when it is assumed that the variance is equal among all groups The results were over 10% decrease in body weight is normally considered as a severe effect of welfare, and such a level of decrease was not found in the present study for none of the mice.

[9] = tested on: DBA/2J mice; assay: Spontaneous production of tear, Schirmer test; format: in vivo; details: treated vs untreated
Text: (§4) The research plan designed with the animal model is depicted in Fig. 3. It comprises three main phases: • An ageing phase, which includes an initial 3-month period of quarantine and acclimatisation and an additional 4.5-month period during which IOP (from month 3 until month 7,5), tear production (from month 5,5 until month 7,5) and tactile sensitivity (from month 4 to month 7,5) are monitored to obtain a baseline for such magnitudes. • A treatment phase, beginning when mice were 8 months old, where DBA/2J and CD-1 animals were randomly divided into two groups: treated and untreated. In this phase, treated mice receive CBD doses. The treatment phase comprises 3 periods: an acute period of 1 day, where, at time 0 of the phase, mice receive a CBD dose and are monitored for 24 hours; an initial chronic period of 18 days (days 2 to 19 of the treatment phase), where mice receive a daily CBD dose, and a second chronic period of other 18 days (days 21 to 37 of the treatment phase), where mice receive 2 daily CBD doses. […]
(§5) Their analysis was carried out following the Von Schirmmer test, which consisted of an ophthalmologic examination used to measure tear production in the eyes by inserting a small special piece of absorbent paper in the corner of the eye to measure the amount of tears produced in a determined period of time. […] Then, the area of the wet test paper was measured (length x width).

[10] = tested on: CD-1 mice; assay: Spontaneous production of tear, Schirmer test; format: in vivo; details: treated vs untreated
Text: as §4, §5

[11] = Acute, hour 1 after single dose
[12] = Chronic, day 12, one daily dose
[13] = Chronic, day 16, one daily dose
[14] = Chronic, day 21, two daily doses
[15] = Chronic, day 26, two daily doses
[16] = Chronic, day 30, two daily doses
[17] = Chronic, day 35, two daily doses
[18] = one week after finishing the treatment

C=C(C)[C@@H]1CCC(C)=C[C@H]1c1c(O)cc(CCCCC)cc1O [CBD, cannabidiol]
effect on IOP [1]: increases IOP
Δ[contra-(treated)-contra-(non-treated)] [2, 11]: +95%
Δ[ipsi-(treated)-ipsi-(non-treated)] [2, 11]: +69%
IOP ratio tn/t0, ipsi- (treated) ([2]; Acute, hour 1 after single dose, treated ipsilateral eye, t0 = month 3.0): 180%
IOP ratio tn/t0, contra- (treated) ([2]; Acute, hour 1 after single dose, untreated contralateral eye, t0 = month 3.0): 192%
Δ[contra-(treated)-contra-(non-treated)] ([2]; Chronic, day 3, one daily dose): +80%
Δ[ipsi-(treated)-ipsi-(non-treated)] ([2]; Chronic, day 3, one daily dose): +35%
IOP ratio tn/t0, contra- (treated) ([2]; Chronic, day 3, one daily dose, contralateral eye): 131%
IOP ratio tn/t0, ipsi- (treated) ([2]; Chronic, day 3, one daily dose, ipsilateral eye): 130%
Δ[contra-(treated)-contra-(non-treated)] ([2]; Chronic, day 7, one daily dose): +49%
Δ[ipsi-(treated)-ipsi-(non-treated)] ([2]; Chronic, day 7, one daily dose): -35%
IOP ratio tn/t0, contra- (treated) ([2]; Chronic, day 7, one daily dose, contralateral eye): 119%
IOP ratio tn/t0, ipsi- (treated) ([2]; Chronic, day 7, one daily dose, ipsilateral eye): 101%
Δ[contra-(treated)-contra-(non-treated)] [2, 12]: +30%
Δ[ipsi-(treated)-ipsi-(non-treated)] [2, 12]: -89%
IOP ratio tn/t0, contra- (treated) ([2]; Chronic, day 12, one daily dose, contralateral eye): 128%
IOP ratio tn/t0, ipsi- (treated) ([2]; Chronic, day 12, one daily dose, ipsilateral eye): 104%
Δ[contra-(treated)-contra-(non-treated)] [2, 13]: -85%
Δ[ipsi-(treated)-ipsi-(non-treated)] [2, 13]: -174%
IOP ratio tn/t0, contra- (treated) ([2]; Chronic, day 16, one daily dose, contralateral eye): 117%
IOP ratio tn/t0, ipsi- (treated) ([2]; Chronic, day 16, one daily dose, ipsilateral eye): 77%
Δ[contra-(treated)-contra-(non-treated)] [2, 14]: -60%
Δ[ipsi-(treated)-ipsi-(non-treated)] [2, 14]: -81%
IOP ratio tn/t0, contra- (treated) ([2]; Chronic, day 21, two daily doses, contralateral eye): 100%
IOP ratio tn/t0, ipsi- (treated) ([2]; Chronic, day 21, two daily doses, ipsilateral eye): 90%
Δ[contra-(treated)-contra-(non-treated)] [2, 15]: -137%
Δ[ipsi-(treated)-ipsi-(non-treated)] [2, 15]: -79%
IOP ratio tn/t0, contra- (treated) ([2]; Chronic, day 26, two daily doses, contralateral eye): 97%
IOP ratio tn/t0, ipsi- (treated) ([2]; Chronic, day 26, two daily doses, ipsilateral eye): 95%
Δ[contra-(treated)-contra-(non-treated)] [2, 16]: -119%
Δ[ipsi-(treated)-ipsi-(non-treated)] [2, 16]: -159%
IOP ratio tn/t0, contra- (treated) ([2]; Chronic, day 30, two daily doses, contralateral eye): 113%
IOP ratio tn/t0, ipsi- (treated) ([2]; Chronic, day 30, two daily doses, ipsilateral eye): 68%
Δ[contra-(treated)-contra-(non-treated)] [2, 17]: -88%
Δ[ipsi-(treated)-ipsi-(non-treated)] [2, 17]: -82%
IOP ratio tn/t0, contra- (treated) ([2]; Chronic, day 35, two daily doses, contralateral eye): 96%
IOP ratio tn/t0, ipsi- (treated) ([2]; Chronic, day 35, two daily doses, ipsilateral eye): 81%
Δ[contra-(treated)-contra-(non-treated)] ([2]; Wear-off, day 38, no treatment): -44%
Δ[ipsi-(treated)-ipsi-(non-treated)] ([2]; Wear-off, day 38, no treatment): -78%
IOP ratio tn/t0, contra- (treated) ([2]; Wear-off, day 38, no treatment, contralateral eye): 64%
IOP ratio tn/t0, ipsi- (treated) ([2]; Wear-off, day 38, no treatment, ipsilateral eye): 81%
Δ[contra-(treated)-contra-(non-treated)] ([2]; Wear-off, day 40, no treatment): -34%
Δ[ipsi-(treated)-ipsi-(non-treated)] ([2]; Wear-off, day 40, no treatment): -70%
IOP ratio tn/t0, contra- (treated) ([2]; Wear-off, day 40, no treatment, contralateral eye): 171%
IOP ratio tn/t0, ipsi- (treated) ([2]; Wear-off, day 40, no treatment, ipsilateral eye): 165%
IOP relative to the untreated group ([2]; acute administration (one dose)): increased IOP
IOP difference relative to the untreated group ([2]; after giving two doses (daily)): -80%
IOP compared with the untreated group [2, 18]: still reduced
IOP relative to the untreated group, late phase ([2]; repeated administration, 7 days on): decreased values
corneal mechanical sensitivity relative to the untreated group ([3]; acute administration): decreased mechanical sensitivity
corneal mechanical sensitivity [3, 18]: still reduced
corneal mechanical sensitivity [4]: no significant effect
effect on IOP [5]: decreases IOP
effect on IOP ([6]; delivered in mineral oil): IOP-lowering effect
effect on IOP ([6]; delivered in sesame oil): absent
CBD release [7]: higher than 90%
welfare ([8]; ocular topical administration): no severe affection of welfare
body weight decrease with regard to the weight before beginning the treatment ([8]; phase of repeated CBD administration, DBA/2J and CD-1 mice, larger in CD-1): lower than 10%
spontaneous production of tear [9]: no significant effect
spontaneous production of tear [10]: no significant effect
